# Reference: patent US20030152557A1, “Methods for inhibiting histone deacetylase-4” (priority 2001, published 2003)
# Experiments:
# A549 = experiment: apoptosis, Cell Death Detection ELISA, A549; assay type: cell-based, human; conditions: 100 ng/ml, 48 hour treatment
# Protocol: (§1) Briefly, human A549 and/or T24 human bladder carcinoma cells were seeded in 10 cm tissue culture dishes one day prior to oligonucleotide treatment. The cell lines were obtained from the American Type Culture Collection (ATCC) (Manassas, Va.) and were grown under the recommended culture conditions. Before the addition of the oligonucleotides, cells were washed with PBS (phosphate buffered saline). Next, lipofectin transfection reagent (GIBCO BRL Mississauga, Ontario, CA), at a concentration of 6.25 μg/ml, was added to serum free OPTIMEM medium (GIBCO BRL, Rockville, Md.), which was then added to the cells. The oligonucleotides to be screened were then added directly to the cells (i.e., one oligonucleotide per plate of cells). Mismatched oligonucleotides were used as controls. The same concentration of oligonucleotide (e.g., 50 nM) was used per plate of cells for each oligonucleotide tested.
# (§2) In order to determine the effect of HDAC OSDNs on cell growth and cell death through apoptosis, A549 or T24 cells, MDAmb231 cells, and HMEC cells (ATCC, Manassas, Va.) were treated with HDAC OSDNs as previously described.
# (§3) For the apoptosis study, cells were analyzed using the Cell Death Detection ELISA^Plus kit (Roche Diagnostic GmBH, Mannheim, Germany) according to the manufacturer's directions. Typically, 10,000 cells were plated in 96-well tissue culture dishes for 2 hours before harvest and lysis. Each sample was analyzed in duplicate. ELISA reading was done using a MR700 plate reader (DYNEX Technology, Ashford, Middlesex, England) at 410 nm. The reference was set at 490 nm.
# T24 = experiment: apoptosis, Cell Death Detection ELISA, T24; assay type: cell-based, human; conditions: 100 ng/ml, 48 hour treatment
# Protocol: as §1, §2, §3
# MDAmb231 = experiment: apoptosis, Cell Death Detection ELISA, MDAmb231; assay type: cell-based, human; conditions: 100 ng/ml, 48 hour treatment
# Protocol: as §1, §2, §3
# HMEC = experiment: apoptosis, Cell Death Detection ELISA, HMEC; assay type: cell-based, human; conditions: 100 ng/ml, 48 hour treatment
# Protocol: as §1, §2, §3
# mammalian HDAC = conditions: Yoshida et al. 1990; cited from earlier work
# [1] = system: murine erythroleukemia cells; conditions: Yoshida et al. 1987; cited from earlier work
# A549 cells = experiment: RNase protection assay of p21, GADD45 and Bax mRNA, A549; conditions: A549, TSA 250 ng/ml 16 hours vs lipofectin
# Protocol: As a control, A549 cells were treated by lipofectin with or without TSA (250 ng/ml) treatment for 16 hours. […] Total RNA from cells was prepared using “RNeasy miniprep kit” from QIAGEN following the manufacturer's manual. Labeled probes used in the protection assays were synthesized using “hStress-1 multiple-probe template sets” from Pharmingen (San Diego, Calif., U.S.A.) according to the manufacturer's instructions. Protection procedures were performed using “RPA II™ Ribonuclease Protection Assay Kit” from Ambion, (Austin, Tex.) following the manufacturer's instructions. Quantitation of the bands from autoradiograms was done by using Cyclone™ Phosphor System (Packard Instruments Co. Inc., Meriden, Conn.).
smiles,measurement,setting,value
"CC(/C=C/C(=O)NO)=C\[C@@H](C)C(=O)c1ccc(N(C)C)cc1 [TSA, (R)-Trichostatin A, reference compound]",Apoptosis A549,A549,++ (“++”: 3-5X fold)
same,Apoptosis T24,T24,++ (“++”: 3-5X fold)
same,Apoptosis MDAmb231,MDAmb231,++ (“++”: 3-5X fold)
same,Apoptosis HMEC,HMEC,+ (“+”: 2-3X fold)
same,inhibition of mammalian HDAC,mammalian HDAC,potent inhibitor of mammalian HDAC
same,induction of differentiation,[1],potent inducer of differentiation in murine erythroleukemia cells
same,fold induction of transcription Bax,A549 cells,0.8 fold
same,fold induction of transcription GADD45,A549 cells,0.6 fold
same,fold induction of transcription p21,A549 cells,2.8 fold
